Some test systems named below: ACHN renal; SK-MEL-28 melanoma; A498 renal; SF-268 CNS; LXFL 529 NSCLC; T-47D breast; MDA-MB-435; HS 578T breast; NCI/ADR-RES ovarian.
What all share (experiment): NCI tumour cell line growth inhibition, 48 h

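These data come from cells grown in 96-well plates and exposed to compound for 48 hours at five concentrations. GI50 = concentration required for 50% inhibition of growth. At the TGI there is no net growth.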 Some results are limits rather than exact numbers.

Take `CC1(C)OC2OC(COC(=O)C(c3ccccc3)c3ccccc3)C3OC(C)(C)OC3C2O1` (stereo unspecified): the TGI in the assay with ACHN renal, in the assay with SK-MEL-28 melanoma, in the assay on A498 renal, in the assay on SF-268 CNS and in the assay with LXFL 529 NSCLC was greater than 100 µM each time. Also, the GI50 in the assay on A498 renal and with LXFL 529 NSCLC was greater than 100 µM each time.
`Nc1c(C(=O)Nc2ccccc2O)[n+]([O-])c2ccccc2[n+]1[O-]`: the TGI in the assay on ACHN renal, in the assay on SK-MEL-28 melanoma, with A498 renal and in the assay on LXFL 529 NSCLC was greater than 100 µM in each case.
In the case of `CC(C)=CC(=O)CC(=O)C(=O)NCCNC(=O)C(=O)CC(=O)C=C(C)C`, the TGI in the assay on ACHN renal, with SK-MEL-28 melanoma, with A498 renal, in the assay on SF-268 CNS and in the assay with LXFL 529 NSCLC was greater than 50 µM each time.
With `CCOc1ccc(/C=C2/C(=O)N=C(N)N=C2N)cc1OCC`, the TGI with ACHN renal, in the assay on SK-MEL-28 melanoma and in the assay on LXFL 529 NSCLC was greater than 100 µM throughout.
Regarding `COc1ccc2c3c(c(C(=O)O)oc13)C(CCC(=O)O)CC2` (stereo unspecified), the TGI in the assay on ACHN renal, in the assay with SK-MEL-28 melanoma, in the assay on A498 renal and in the assay on LXFL 529 NSCLC was greater than 100 µM each time.
Regarding `CC(C)(C)c1cc(C(OCCl)(C(F)(F)F)C(F)(F)F)c2c(c1)C(C(F)(F)F)(C(F)(F)F)OC21c2ccccc2C(=O)c2ccccc21`, the TGI in the assay with ACHN renal, in the assay on SK-MEL-28 melanoma and in the assay on LXFL 529 NSCLC was greater than 100 µM in each case.
On to `Cc1csc(CCC(N)C(=O)O)n1` (stereo unspecified), for which the TGI with ACHN renal, in the assay on SK-MEL-28 melanoma and in the assay with LXFL 529 NSCLC was greater than 100 µM each time.
Consider `CC1=NN(c2nc(N)nc(/C=C\c3ccccc3)n2)C(C)(C)C1`, for which the GI50 in the assay with ACHN renal is 9.46 µM; in the assay with T-47D breast, 2.5 µM; in the assay on SK-MEL-28 melanoma it was 9.41 µM; with A498 renal it was 5.58 µM; in the assay with MDA-MB-435, 1.97 µM; in the assay with SF-268 CNS, 6.1 µM. The GI50 was 13.5 µM in the assay on HS 578T breast and 3.75 µM with NCI/ADR-RES ovarian. Moreover, the TGI in the assay with ACHN renal is 28.4 µM; in the assay with T-47D breast it was 15.1 µM; in the assay with SK-MEL-28 melanoma, 22.3 µM; in the assay with A498 renal, 20.7 µM; in the assay with MDA-MB-435, 7.13 µM; in the assay with SF-268 CNS, 24.4 µM. For the same molecule, the TGI with HS 578T breast was 77.5 µM; with NCI/ADR-RES ovarian, 24.7 µM.
As to `CCN(CC)CCS(=O)(=O)CCNc1ccnc2cc(Cl)ccc12`, the GI50 with ACHN renal was 1.49 µM; in the assay with T-47D breast, 6.23 µM; with SK-MEL-28 melanoma, 4.97 µM; in the assay on A498 renal it was 2.25 µM; with MDA-MB-435 it was 1.65 µM; with SF-268 CNS it was 2.86 µM. The GI50 in the assay with HS 578T breast is 4.07 µM; in the assay on NCI/ADR-RES ovarian, 1.12 µM. The TGI in the assay with ACHN renal is 29.8 µM; with T-47D breast it was 48.8 µM; in the assay with SK-MEL-28 melanoma, 25.7 µM; in the assay on A498 renal, 8.28 µM; in the assay on MDA-MB-435, greater than 20.5 µM; in the assay with SF-268 CNS it was greater than 49.5 µM. For the same molecule, the results for the TGI in the assay with HS 578T breast and in the assay on NCI/ADR-RES ovarian were greater than 100 µM and 4.73 µM, respectively.
Turning to `CC1(C)N=C(N)N=C(N)N1c1ccc(OCCCCNC(=O)Nc2cccc(S(=O)(=O)F)c2)c(Cl)c1`, the GI50 was 22.3 µM with ACHN renal; 15.8 µM in the assay on T-47D breast; 6.04 µM with SK-MEL-28 melanoma; 14.5 µM in the assay on A498 renal; 0.642 µM in the assay on MDA-MB-435; 0.649 µM with SF-268 CNS. In addition, the GI50 is 19.3 µM in the assay with HS 578T breast and greater than 100 µM with NCI/ADR-RES ovarian. Moreover, the TGI in the assay with ACHN renal, in the assay with T-47D breast, in the assay on SK-MEL-28 melanoma, in the assay with A498 renal, in the assay on MDA-MB-435 and in the assay with SF-268 CNS was greater than 100 µM throughout. Besides, the TGI in the assay with HS 578T breast and in the assay with NCI/ADR-RES ovarian was greater than 100 µM in each case.
`O=C(/C=C/c1cccc(Oc2ccc(Cl)cc2)c1)c1ccccc1`: the GI50 with ACHN renal was 16.9 µM; with T-47D breast, 46.3 µM; with SK-MEL-28 melanoma it was 29.7 µM; in the assay on A498 renal it was 163 µM; in the assay on MDA-MB-435 it was 21.9 µM; with SF-268 CNS, 75.5 µM. The GI50 in the assay on HS 578T breast is 109 µM; in the assay with NCI/ADR-RES ovarian it was 37.1 µM. Besides, the TGI turned out to be 31.7 µM with ACHN renal; 235 µM in the assay on T-47D breast; 107 µM with SK-MEL-28 melanoma; 312 µM in the assay with A498 renal; 50.9 µM with MDA-MB-435; 209 µM in the assay on SF-268 CNS. For the same molecule, the TGI in the assay on HS 578T breast worked out at 628 µM; with NCI/ADR-RES ovarian, 232 µM.
As for `Cc1cc(-c2ccco2)cc(C)c1/C=C/c1cncc(-c2nn[nH]n2)c1`, the GI50 in the assay on ACHN renal, with T-47D breast, with SK-MEL-28 melanoma, with A498 renal, with MDA-MB-435 and with SF-268 CNS was greater than 25 µM each time. Further, the GI50 with HS 578T breast and in the assay on NCI/ADR-RES ovarian was greater than 25 µM throughout. The TGI in the assay with ACHN renal, in the assay on T-47D breast, with SK-MEL-28 melanoma, in the assay with A498 renal, with MDA-MB-435 and in the assay on SF-268 CNS was greater than 25 µM throughout. Moreover, the TGI with HS 578T breast and with NCI/ADR-RES ovarian was greater than 25 µM throughout.
As to `Cc1cn2c(/C=C3/C(=O)Nc4ccc(C(=O)O)cc43)c(C)nc2s1`, the GI50 in the assay with ACHN renal, with T-47D breast, in the assay with SK-MEL-28 melanoma, in the assay on A498 renal, with MDA-MB-435 and with SF-268 CNS was greater than 100 µM in each case. Besides, the GI50 in the assay on HS 578T breast and with NCI/ADR-RES ovarian was greater than 100 µM each time. The TGI in the assay on ACHN renal, in the assay on T-47D breast, in the assay on SK-MEL-28 melanoma, in the assay with A498 renal, with MDA-MB-435 and in the assay with SF-268 CNS was greater than 100 µM in each case. Also, the TGI in the assay with HS 578T breast and with NCI/ADR-RES ovarian was greater than 100 µM each time.
On to `CC(=O)c1c(O)c2c([nH]c1=O)CCCC2`, for which the TGI in the assay with ACHN renal, in the assay with SK-MEL-28 melanoma, in the assay on SF-268 CNS and in the assay on LXFL 529 NSCLC was greater than 100 µM in each case.
Take `O=S(=O)(NCCCNc1nccc(-c2c(-c3cccc(F)c3)nc3occn23)n1)c1cccc2ccccc12`: the GI50 is 3.64 µM with ACHN renal; 2.59 µM in the assay with T-47D breast; 23.6 µM in the assay on SK-MEL-28 melanoma; 8.36 µM in the assay with A498 renal; 3.75 µM with MDA-MB-435; 7.39 µM in the assay on SF-268 CNS. Also, the GI50 is 8.36 µM with HS 578T breast and 5.52 µM in the assay on NCI/ADR-RES ovarian. The TGI with ACHN renal, with T-47D breast, in the assay with SK-MEL-28 melanoma, in the assay with A498 renal, in the assay on MDA-MB-435 and with SF-268 CNS was greater than 100 µM each time. For the same molecule, the TGI with HS 578T breast and in the assay on NCI/ADR-RES ovarian was greater than 100 µM in each case.
Regarding `O=C1C2C(C(=O)N1CC[Se][Se]CCN1C(=O)C3C(C1=O)[C@H]1C=C[C@@H]3C1)[C@H]1C=C[C@@H]2C1` (stereo partly specified), the GI50 in the assay on ACHN renal is 0.408 µM; with T-47D breast it was 2.09 µM; with SK-MEL-28 melanoma, 0.362 µM; in the assay with A498 renal, 0.686 µM; with MDA-MB-435, 0.267 µM; in the assay on SF-268 CNS, 0.271 µM. Further, the GI50 was 0.266 µM in the assay with HS 578T breast and 0.561 µM in the assay on NCI/ADR-RES ovarian. The TGI in the assay with ACHN renal was 2.21 µM; with T-47D breast, 5.42 µM; with SK-MEL-28 melanoma, 3.02 µM; in the assay on A498 renal, 2.26 µM; in the assay with MDA-MB-435, 0.744 µM; in the assay with SF-268 CNS it was 0.76 µM. Further, the TGI with HS 578T breast turned out to be 1.16 µM; in the assay on NCI/ADR-RES ovarian, 3.54 µM.
Regarding `COC(=O)C1=Nc2ccc(F)cc2/C1=C/c1sc(=S)[nH]c1O`, the GI50 in the assay with ACHN renal was 0.0697 µM; with T-47D breast it was 4.41 µM; with SK-MEL-28 melanoma it was 1.06 µM; in the assay on A498 renal it was 0.202 µM; in the assay with MDA-MB-435, 0.0233 µM; with SF-268 CNS it was 0.575 µM. Besides, the GI50 in the assay on HS 578T breast is 0.0518 µM; with NCI/ADR-RES ovarian, 0.0704 µM. Moreover, the TGI in the assay on ACHN renal is 18 µM; in the assay with T-47D breast it was greater than 100 µM; in the assay with SK-MEL-28 melanoma it was greater than 83.5 µM; with A498 renal, 0.942 µM; with MDA-MB-435, 0.0605 µM; with SF-268 CNS it was 29.9 µM. For the same molecule, the TGI with HS 578T breast amounted to 21.6 µM; in the assay with NCI/ADR-RES ovarian, 11.5 µM.
Take `Cc1ccc(NC(=O)c2ccc(NC3=C(Cl)C(=O)N(Cc4ccccc4)C3=O)cc2)cc1Cl`: the GI50 with ACHN renal is 12.6 µM; in the assay with T-47D breast, 2.8 µM; in the assay on SK-MEL-28 melanoma it was 24.2 µM; in the assay with A498 renal it was 0.854 µM; in the assay on MDA-MB-435 it was 24 µM; in the assay on SF-268 CNS, 12.4 µM. In addition, the results for the GI50 in the assay with HS 578T breast and in the assay on NCI/ADR-RES ovarian were 10.7 µM and 3.78 µM, respectively. Moreover, the TGI in the assay with ACHN renal is 25.1 µM; in the assay with T-47D breast, 14.5 µM; in the assay on SK-MEL-28 melanoma, greater than 100 µM; in the assay with A498 renal, 26.9 µM; in the assay with MDA-MB-435 it was greater than 100 µM; in the assay with SF-268 CNS, 33.7 µM. Besides, the TGI in the assay on HS 578T breast turned out to be 34.9 µM; with NCI/ADR-RES ovarian, 21.7 µM.
In the case of `O=C(CCC(=O)C1Cc2ccccc2C1=O)Nc1cccc(C(F)(F)F)c1` (stereo unspecified), the TGI in the assay on ACHN renal, in the assay with SF-268 CNS and in the assay with LXFL 529 NSCLC was greater than 100 µM in each case.
